Data: patent publication US20040043055A1 (AJINOMOTO CO. INC., priority 2002, published 2004)

Key:
[1] = Example 1: liver glycogen content after starvation in week 16; assay type: in vivo, C57BL/6J mice; conditions: 24 h starvation, L-glutamine plus exercise, FIG. 5
Method: The results of glycogen contents in the liver after starvation were the same trends as plasma insulin concentrations (FIG. 5).
(§1) Fifty male C57BL/6J mice, 9 weeks old, were used herein. […] The experiment was conducted for 16 weeks. The mice exercised on a treadmill at moderate intensity (at 4.0 m/min) for 30 minutes a day, 5 days a week. It is known that oxygen consumption (VO2) strongly correlates with exercise intensity. However, VO2 reaches the plateau at a certain point as exercise intensity increases, which is defined as maximum oxygen consumption (VO2max). Percentage of maximum oxygen consumption (% VO2max) is one of the common ways to indicate the exercise intensity. According to Schefer V. and Talan M. I. (Exp. Gerontol. 31:387 (1996)), a running speed of 3-4 m/min which was the same intensity of exercise used herein produced a VO2 equivalent to 54-58% of the VO2max in adult C57BL/6J mice. In 16 weeks of the experiment, plasma and liver samples were obtained after overnight starvation.

[2] = Example 1: fasting plasma insulin concentration in week 16; assay type: in vivo, C57BL/6J mice; conditions: FIG. 4
Method: as §1

[3] = Solubility limit of L-glutamine in liquid product; assay type: physicochemical
[4] = Example 1: body weight of mice on high fat diet containing L-glutamine, with or without treadmill exercise; assay type: in vivo, C57BL/6J mice
Method: as §1
Relative body weight to the LF group in week 5, 10, and 16 are shown in FIGS. 1, 2, and 3, respectively.
Applying to a human, assuming a life span of 70 years, 10 weeks and 4 months for mice correspond to 7 and 12 years for a human, respectively.

[5] = Example 2: body weight, epididymal fat and abdominal fats after 6 weeks of high fat diet containing L-glutamine; assay type: in vivo, C57BL/6J mice; conditions: high fat diet containing 3.6% or 6.0% of L-glutamine
Method: Forty of male C57BL/6J mice, age 5 weeks, were used herein. […] After 6 weeks of the diet feedings, body weight and epididymal fat weight were measured.

remaining glycogen content in the liver after starvation [1]: the lowest
solubility limit ([3]; 0° C.): 8.3 g per 473 milliliters
solubility limit ([3]; 18° C.): 12.3 g per 473 milliliters
solubility limit ([3]; 30° C.): 22.7 g per 473 milliliters
SMILES: NC(=O)CC[C@H](N)C(=O)O [L-glutamine]
plasma insulin concentrations ([2]; L-glutamine administration alone, high fat feeding): reduced plasma insulin concentrations
plasma insulin concentrations ([2]; combination of L-glutamine administration and exercise): the lowest and was close to that of LF group
body weight gain by high fat feeding ([4]; week 5, exercise groups, 6.0% L-glutamine plus exercise (6Q+EX) vs HF+EX, FIG. 1): prevented considerably
rate of body weight gain ([4]; week 5, non-exercise groups, high fat diet containing 6.0% of L-glutamine (6Q) vs HF, FIG. 1): did not reduce the rate of body weight gain
synergistic effect of L-glutamine and exercise on body weight gain ([4]; week 10, 6Q+EX, FIG. 2): synergistic effect lasted for 10 weeks
combined effects on body weight ([4]; week 16, 6Q+EX compared to HF+EX, FIG. 3): combined effects disappeared in week 16, although lower body weight was still observed
weights of abdominal fats [5]: decreased in a dose-dependent manner
weights of epididymal fat ([5]; FIG. 7): decreased in a dose-dependent manner
rates of body weight gain ([5]; no exercise, FIG. 6): reduced by L-glutamine administrations in a dose-dependent manner
